Where two headings read alike, the source gives them in different places.
Target: T1, DPD (Rattus norvegicus, UniProt O89000)
T1 construct: the obtained supernatant was used as a DPD enzyme solution or an OPRT enzyme solution; from tissue; host or cells: liver of 8-week old SD rat; 105,000 g supernatant of homogenate
T1 sequence (O89000 1-1025): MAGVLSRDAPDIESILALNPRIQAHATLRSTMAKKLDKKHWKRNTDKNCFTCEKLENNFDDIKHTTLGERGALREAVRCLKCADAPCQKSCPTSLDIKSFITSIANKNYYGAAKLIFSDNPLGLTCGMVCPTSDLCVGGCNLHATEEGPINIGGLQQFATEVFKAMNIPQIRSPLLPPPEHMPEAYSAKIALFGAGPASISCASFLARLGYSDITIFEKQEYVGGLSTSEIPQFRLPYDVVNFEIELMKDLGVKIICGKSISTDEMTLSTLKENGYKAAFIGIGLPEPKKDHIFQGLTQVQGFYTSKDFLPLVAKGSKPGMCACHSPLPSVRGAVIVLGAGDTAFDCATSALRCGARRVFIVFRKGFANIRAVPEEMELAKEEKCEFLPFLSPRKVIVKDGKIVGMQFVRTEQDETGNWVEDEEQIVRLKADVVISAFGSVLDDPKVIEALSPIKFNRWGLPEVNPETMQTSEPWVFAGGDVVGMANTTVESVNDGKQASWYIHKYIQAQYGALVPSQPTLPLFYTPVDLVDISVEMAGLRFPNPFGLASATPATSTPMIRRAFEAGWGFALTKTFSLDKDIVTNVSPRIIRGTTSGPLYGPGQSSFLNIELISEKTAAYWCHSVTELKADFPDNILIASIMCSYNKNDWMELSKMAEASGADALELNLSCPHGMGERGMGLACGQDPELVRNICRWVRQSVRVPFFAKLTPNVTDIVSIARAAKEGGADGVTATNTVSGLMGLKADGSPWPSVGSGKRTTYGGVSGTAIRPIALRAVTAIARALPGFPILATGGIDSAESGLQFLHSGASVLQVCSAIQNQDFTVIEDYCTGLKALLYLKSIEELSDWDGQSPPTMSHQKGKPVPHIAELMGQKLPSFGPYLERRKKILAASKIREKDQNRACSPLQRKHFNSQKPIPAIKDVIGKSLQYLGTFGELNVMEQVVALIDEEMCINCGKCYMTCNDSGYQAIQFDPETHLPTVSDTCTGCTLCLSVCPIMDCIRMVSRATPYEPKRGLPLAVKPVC
Assay: DPD inhibitory action in vitro (enzyme reaction, tritium-labeled 5-FU as substrate)
Type: biochemical
Experimental: The resulting product was diluted to concentrations of 1 mM, 100 μM, 10 μM, and 1 μM with a 10 mM potassium phosphate buffer solution (pH 6.0), thereby obtaining Test Liquids 1. The obtained Test Liquids 1 were separately added to the enzyme reaction solution described below to give final concentrations of 200 μM, 20 μM, 2 μM, and 0.2 μM. • (b) Test liquid preparation (2): As a DPD inhibitor, 5-chloro-2,4-dihydroxypyridine (CDHP; gimeracil) was dissolved to a concentration of 10 mM in a 10 mM potassium phosphate buffer solution (pH 6.0). The resulting product was diluted to concentrations of 1 mM, 100 μM, 10 μM, and 1 μM, thereby obtaining Test Liquids 2. The obtained Test Liquids 2 were separately added to the enzyme reaction solution to give final concentrations of 200 μM, 20 μM, 2 μM, and 0.2 μM. • (c) Test liquid preparation (3): As an OPRT inhibitor, citrazinic acid (Citra. A.) was dissolved to a concentration of 10 mM in 20 mM trishydroxyaminomethane-hydrochloric buffer solution (pH 8.0). Thereafter, the resulting product was diluted to concentrations of 1 mM, 100 μM, and 10 μM with a 10 mM potassium phosphate buffer solution, thereby obtaining Test Liquids (3). The obtained Test Liquids 3 were separately added to the enzyme reaction solution to give final concentrations of 200 μM, 20 μM, and 2 μM. • (d) Preparation of enzyme solution: The liver of an 8-week old SD rat was used as a DPD enzyme source, while human tumor cells that had been transplanted into a nude mouse and proliferated therein were used as an OPRT enzyme source. Specifically, immediately after a rat liver or successively-transplanted human tumor cells were extracted, a 50-mM tris-hydrochloric acid buffer solution (pH 8.0) containing 0.25 M saccharose, 5 mM magnesium chloride, and 1 mM dithreitol was added thereto to a concentration of 25% (w/v) and homogenized. Thereafter, ultracentrifugation was performed at 105,000 g for 60 minutes, and the obtained supernatant was used as a DPD enzyme solution or an OPRT enzyme solution. • (e) Enzyme reaction: A DPD enzyme reaction was carried out in accordance with the method of Tatsumi et al. (Gann, 78: 748-755 (1987)) using 5-FU labeled with tritium as a substrate. An OPRT enzyme reaction was carried out in accordance with the method of Shirasaka et al. (Cancer Res., 53: 4004-4009 (1993)) using 5-FU labeled with tritium as a substrate. Then, the activity of a control group (with no test compound) and test compound groups was measured. The percent inhibition of the test compound relative to DPD or OPRT was calculated using the following formula: [1-(the enzyme activity with the test compound/the enzyme activity of the control group)]×100(%).
The resulting product was diluted to concentrations of 1 mM, 100 μM, 10 μM, and 1 μM with a 10 mM potassium phosphate buffer solution (pH 6.0), thereby obtaining Test Liquids 1. The obtained Test Liquids 1 were separately added to the enzyme reaction solution described below to give final concentrations of 200 μM, 20 μM, 2 μM, and 0.2 μM. • (b) Preparation of enzyme solution: The liver of an 8-week old SD rat was used as a DPD enzyme source, while human tumor cells that had been transplanted into a nude mouse and proliferated therein were used as an OPRT enzyme source. Specifically, immediately after a rat liver or successively-transplanted human tumor cells were extracted, a 50-mM tris-hydrochloric acid buffer solution (pH 8.0) containing 0.25 M saccharose, 5 mM magnesium chloride, and 1 mM dithreitol was added thereto to a concentration of 25% (w/v) and homogenized. Thereafter, ultracentrifugation was performed at 105,000 g for 60 minutes, and the obtained supernatant was used as a DPD enzyme solution or an OPRT enzyme solution. • (c) Enzyme reaction: A DPD enzyme reaction was carried out in accordance with the method of Tatsumi et al. (Gann, 78: 748-755 (1987)) using 5-FU labeled with tritium as a substrate. […]

[1] = 0.2 μM, Table 2, read-out: DPD Inhibition (%)
[2] = 2 μM, Table 2, read-out: DPD Inhibition (%)

CCOCn1cc(F)c(=O)n(C(=O)c2cccc(C(=O)Oc3cc(OC(=O)c4cc(O)nc(O)c4)c(Cl)cn3)c2)c1=O [Compound I-2, 3-{3-[4-(2,6-dihydroxyisonicotinoyloxy)-5-chloro-2-pyridyloxycarbonyl]benzoyl}-1-ethoxymethyl-5-fluorouracil]
DPD Inhibitory Activity: Activity (Conc. 0.2 μM, Table 1): 0.613 nmol/mL/min
inhibition at 0.2 µM (Conc. 0.2 μM, Table 1, read-out: DPD Inhibitory Activity: Inhibition): 39.2%
DPD Inhibitory Activity: Activity (Conc. 2 μM, Table 1): 0.157 nmol/mL/min
inhibition at 2 µM (Conc. 2 μM, Table 1, read-out: DPD Inhibitory Activity: Inhibition): 84.4%
DPD Inhibitory Activity: Activity (Conc. 20 μM, Table 1): 0.075 nmol/mL/min
inhibition at 20 µM (Conc. 20 μM, Table 1): 92.6%
DPD Inhibitory Activity: Activity (Conc. 200 μM, Table 1): 0.100 nmol/mL/min
inhibition at 200 µM (Conc. 200 μM, Table 1): 90%

CCOCn1cc(F)c(=O)n(C(=O)c2cccc(C(=O)Oc3cc(OC(=O)c4cc(OC(=O)C5CCCC5)nc(OC(=O)C5CCCC5)c4)c(Cl)cn3)c2)c1=O [Compound I-9, 3-{3-[4-(2,6-dicyclopentanecarbonyloxyisonicotinoyloxy)-5-chloro-2-pyridyloxycarbonyl]benzoyl}-1-ethoxymethyl-5-fluorouracil]
inhibition at 0.2 µM [1]: 45.7%
inhibition at 2 µM [2]: 74.6%

CCOCn1cc(F)c(=O)n(C(=O)c2cccc(C(=O)Oc3cc(OC(=O)c4cc(OC(C)=O)nc(OC(C)=O)c4)c(Cl)cn3)c2)c1=O [Compound I-10, 3-{3-[4-(2,6-diacetyloxyisonicotinoyloxy)-5-chloro-2-pyridyloxycarbonyl]benzoyl}-1-ethoxymethyl-5-fluorouracil]
inhibition at 0.2 µM [1]: 43.9%
inhibition at 2 µM [2]: 77.2%

CCOCn1cc(F)c(=O)n(C(=O)c2cccc(C(=O)Oc3cc(OC(=O)c4cc(OC(=O)CC)nc(OC(=O)CC)c4)c(Cl)cn3)c2)c1=O [Compound I-11, 3-{3-[4-(2,6-dipropionyloxyisonicotinoyloxy)-5-chloro-2-pyridyloxycarbonyl]benzoyl}-1-ethoxymethyl-5-fluorouracil]
IC50 (5-FU as substrate, Test Example 4, read-out: IC50 of DPD activity inhibition): ~500 nM
DPD Inhibitory Activity: Activity (Conc. 0.2 μM, Table 5): 0.285 nmol/mL/min
inhibition at 0.2 µM (Conc. 0.2 μM, Table 5, read-out: DPD Inhibitory Activity: Inhibition): 56.8%
DPD Inhibitory Activity: Activity (Conc. 2 μM, Table 5): 0.216 nmol/mL/min
inhibition at 2 µM (Conc. 2 μM, Table 5, read-out: DPD Inhibitory Activity: Inhibition): 67.2%
DPD Inhibitory Activity: Activity (Conc. 20 μM, Table 5): 0.081 nmol/mL/min
inhibition at 20 µM (Conc. 20 μM, Table 5): 87.7%
